Reference: patent US9650339B2, “Inhibitors of histone demethylases” (Gilead Sciences, Inc., priority 2013, dated 2017)

Assays:
KDM4C (JMJD2C) = target: T1, KDM4C (JMJD2C) (Homo sapiens, UniProt Q9H3R0); test: Histone lysine demethylase AlphaLISA assay, KDM4C; assay type: biochemical; details: read-out: KDM4C HDME Inhibition IC50
T1 sequence (Q9H3R0 1-349): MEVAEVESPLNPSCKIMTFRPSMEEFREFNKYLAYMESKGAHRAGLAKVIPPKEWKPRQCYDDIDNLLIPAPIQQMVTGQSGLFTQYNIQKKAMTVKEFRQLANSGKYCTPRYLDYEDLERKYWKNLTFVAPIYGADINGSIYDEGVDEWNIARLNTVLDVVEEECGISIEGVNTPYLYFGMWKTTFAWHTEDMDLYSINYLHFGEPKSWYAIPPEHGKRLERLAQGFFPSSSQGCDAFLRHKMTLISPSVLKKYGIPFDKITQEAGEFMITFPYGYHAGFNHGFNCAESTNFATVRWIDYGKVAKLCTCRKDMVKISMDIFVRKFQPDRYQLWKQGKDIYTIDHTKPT
In short: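 Enzyme 10 min pre-incubation; + compound (3% DMSO soln) 10 min; + biotin-H3 methyl-Lys peptide, 25 μM L-Asc, 10 μM α-KG, RT. Read: AlphaLISA acceptor beads, then streptavidin donor beads, RT, dark.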

KDM4C = target: T2, KDM4C (Homo sapiens, UniProt Q9H3R0); test: Histone lysine demethylase immunofluorescence assay, U2OS cells transfected with KDM4C; assay type: cell-based; details: U2OS cells transfected with pCMVHA KDM4C; mark detected H3K9me3; 20 hours
T2 construct: Full length; host or cells: U2OS
T2 sequence (Q9H3R0 1-1056): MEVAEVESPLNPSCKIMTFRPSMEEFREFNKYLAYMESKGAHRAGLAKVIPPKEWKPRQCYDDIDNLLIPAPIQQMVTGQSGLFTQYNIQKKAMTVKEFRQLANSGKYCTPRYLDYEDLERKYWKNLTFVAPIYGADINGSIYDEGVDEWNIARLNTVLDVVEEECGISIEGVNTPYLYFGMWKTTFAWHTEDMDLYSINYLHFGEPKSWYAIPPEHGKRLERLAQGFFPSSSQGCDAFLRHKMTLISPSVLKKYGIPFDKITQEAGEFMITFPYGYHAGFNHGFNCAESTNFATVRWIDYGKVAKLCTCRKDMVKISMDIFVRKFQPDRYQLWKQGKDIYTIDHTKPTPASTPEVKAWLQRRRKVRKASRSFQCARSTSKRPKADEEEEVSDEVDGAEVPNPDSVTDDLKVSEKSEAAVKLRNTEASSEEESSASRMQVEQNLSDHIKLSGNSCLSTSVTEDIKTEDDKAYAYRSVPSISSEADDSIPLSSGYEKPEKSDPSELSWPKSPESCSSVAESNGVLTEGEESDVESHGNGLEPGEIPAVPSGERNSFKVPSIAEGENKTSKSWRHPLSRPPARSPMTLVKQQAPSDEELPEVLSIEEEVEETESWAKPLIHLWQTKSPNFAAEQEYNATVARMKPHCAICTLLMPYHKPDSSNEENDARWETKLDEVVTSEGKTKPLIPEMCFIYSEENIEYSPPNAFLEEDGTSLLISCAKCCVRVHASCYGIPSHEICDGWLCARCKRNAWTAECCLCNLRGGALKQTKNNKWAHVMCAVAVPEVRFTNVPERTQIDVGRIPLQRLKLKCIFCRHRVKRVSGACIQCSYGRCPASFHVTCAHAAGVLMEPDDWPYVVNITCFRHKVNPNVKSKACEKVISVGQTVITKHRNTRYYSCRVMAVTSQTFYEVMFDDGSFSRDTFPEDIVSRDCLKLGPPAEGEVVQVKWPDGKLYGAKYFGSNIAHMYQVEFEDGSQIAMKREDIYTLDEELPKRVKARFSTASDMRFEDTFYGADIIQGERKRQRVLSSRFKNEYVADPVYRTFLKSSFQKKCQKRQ
In short: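 U2OS cells were transiently transfected with HA-tagged demethylase and reseeded after 6 h into compound-containing DMEM/10% FBS for 20 h. Cells were fixed in formaldehyde and immunostained for HA and the relevant histone methyl mark, then imaged. IC50 is based on mean mark staining in HA+ transfected cells.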

Structure (SMILES) | IC50 (KDM4C (JMJD2C)) [nM] | IC50 (KDM4C) [nM]
CN(C)CCNCc1ccnc(CNCCCN(C)Cc2ccccc2)c1 [Compound 18, benzyl[3-({[4-({[2-(dimethylamino)ethyl]-amino}methyl)pyridin-2-yl]methyl}-amino)propyl]-methylamine] | > 2500 | –
COCCNCc1ccnc(CNCCCN(C)Cc2ccccc2)c1 [Compound 19, benzyl(3-{[(4-{[(2-methoxyethyl)amino]-methyl}pyridin-2-yl)methyl]amino}-propyl)methylamine] | > 2500 | > 2500
COc1ccccc1CN1CCC(NC(=O)CNCc2cc(CNC3CC3)ccn2)CC1 [Compound 20, 2-[({4-[(cyclopropylamino)-methyl]pyridin-2-yl}methyl)amino]-N-{1-[(2-methoxyphenyl)methyl]-piperidin-4-yl}acetamide] | 250 to 2500 | > 2500
CCN(CCN(C)C)C(=O)CN(Cc1cc(CNC(=O)C(F)(F)F)ccn1)C(=O)C(F)(F)F [Compound 26, N-[(2-{[N-({[2-(dimethylamino)ethyl]-(ethyl)carbamoyl}-methyl)-2,2,2-trifluoroacetamido]-methyl}pyridin-4-yl)methyl]-2,2,2-trifIuoroacetamide] | > 2500 | 250 to 2500
COC(=O)CNCc1cc(/C=N/C2CC2)ccn1 [Compound 59, methyl 2-[({4-[N-cyclopropyl-carboximidoyl]pyridin-2-yl}methyl)amino]-acetate] | 250 to 2500 | > 2500

Continued, values first:

IC50 (KDM4C (JMJD2C)) [nM] | IC50 (KDM4C) [nM] | Structure (SMILES)
> 2500 | 250 to 2500 | CN(C)CCCCNCc1cc(CN)ccn1 [Compound 2, [2-({[4-(dimethylamino)butyl]-amino}methyl)pyridin-4-yl]methanamine]
250 to 2500 | 250 to 2500 | CCN(CC)CCCCNCc1cc(C2NCCCN2C)ccn1 (centres unmarked) [Compound 68, [4-(diethylamino)butyl]({[4-(1-methyl-1,3-diazinan-2-yl)pyridin-2-yl]methyl})amine]
250 to 2500 | > 2500 | O=Cc1ccnc(CNCCCCN(Cc2ccccc2)C2CC2)c1 [Compound 109, 2-[({4-[benzyl-(cyclopropyl)amino]-butyl}amino)methyl]-pyridine-4-carbaldehyde]
250 to 2500 | > 2500 | O=Cc1ccnc(CNCC(=O)NC2CCN(Cc3ccccc3)C2)c1 (centres unmarked) [Compound 113, N-(1-benzylpyrrolidin-3-yl)-2-{[(4-formylpyridin-2-yl)methyl]amino}-acetamide]
